The numbers were not newly measured in publication PMC11053612, “Membrane-Fusing Vehicles for Re-Sensitizing Transporter-Mediated Multiple-Drug Resistance in Cancer” (Pharmaceutics, 2024), which cites them from elsewhere.

Common to all, as to conditions: ref [23],[24],[25],[26]
For one data set, the target named is T1, ABCB1 (Homo sapiens, UniProt P08183).
T1 construct: expressed in transfected cells; host or cells: MDCK II MDR1 (canine kidney MDCK II, transfected; gift of Dr. A. Schinkel, Netherlands Cancer Institute)
T1 sequence (P08183 whole entry): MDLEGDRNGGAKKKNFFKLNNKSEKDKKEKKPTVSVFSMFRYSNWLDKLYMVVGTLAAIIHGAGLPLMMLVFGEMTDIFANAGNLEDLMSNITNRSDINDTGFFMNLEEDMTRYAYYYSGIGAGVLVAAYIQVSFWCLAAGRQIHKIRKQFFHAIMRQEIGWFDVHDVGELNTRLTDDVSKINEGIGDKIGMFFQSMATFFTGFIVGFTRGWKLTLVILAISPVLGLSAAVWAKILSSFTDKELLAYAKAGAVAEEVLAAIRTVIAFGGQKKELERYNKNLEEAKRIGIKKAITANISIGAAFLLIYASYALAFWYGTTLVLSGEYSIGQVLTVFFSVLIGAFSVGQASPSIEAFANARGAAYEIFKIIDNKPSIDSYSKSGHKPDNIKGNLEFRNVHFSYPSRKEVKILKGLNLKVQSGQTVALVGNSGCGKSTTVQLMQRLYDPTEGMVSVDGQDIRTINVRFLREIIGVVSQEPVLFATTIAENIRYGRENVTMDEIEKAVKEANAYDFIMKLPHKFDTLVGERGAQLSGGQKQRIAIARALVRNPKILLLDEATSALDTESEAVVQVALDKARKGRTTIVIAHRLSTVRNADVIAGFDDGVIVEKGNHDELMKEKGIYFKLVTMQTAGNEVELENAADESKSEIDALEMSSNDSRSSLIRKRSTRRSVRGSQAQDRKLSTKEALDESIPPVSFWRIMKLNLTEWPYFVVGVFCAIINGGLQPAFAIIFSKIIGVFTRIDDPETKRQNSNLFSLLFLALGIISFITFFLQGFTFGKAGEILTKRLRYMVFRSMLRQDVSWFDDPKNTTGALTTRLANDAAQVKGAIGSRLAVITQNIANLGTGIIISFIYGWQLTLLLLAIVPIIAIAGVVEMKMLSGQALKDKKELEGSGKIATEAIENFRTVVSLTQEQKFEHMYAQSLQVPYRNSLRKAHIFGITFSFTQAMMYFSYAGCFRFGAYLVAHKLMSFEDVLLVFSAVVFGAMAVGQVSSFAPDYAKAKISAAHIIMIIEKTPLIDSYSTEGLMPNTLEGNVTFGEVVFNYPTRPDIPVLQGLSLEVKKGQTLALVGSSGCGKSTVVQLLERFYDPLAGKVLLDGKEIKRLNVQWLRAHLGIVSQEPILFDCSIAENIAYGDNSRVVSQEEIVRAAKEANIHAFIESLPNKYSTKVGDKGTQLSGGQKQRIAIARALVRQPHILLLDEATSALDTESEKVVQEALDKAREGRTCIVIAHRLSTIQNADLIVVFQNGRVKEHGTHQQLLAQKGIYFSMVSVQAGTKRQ
More on the design: method as in PMID 23470221, PMID 7999426, PMID 11309820, PMID 14973080; key: +: whether they are actively transported or not.

The subject of another data set is ABCG2. On the set-up: method as in PMID 23470221, PMID 7999426, PMID 11309820, PMID 14973080; key: +: whether they are actively transported or not; −: whether they are actively transported or not.
A further data set deals with T2, ABCC1 (Homo sapiens, UniProt P33527).
T2 construct: expressed in transfected cells; host or cells: MDCK II MRP1 (canine kidney MDCK II, transfected; gift of Dr. A. Schinkel, Netherlands Cancer Institute)
T2 sequence (P33527 whole entry): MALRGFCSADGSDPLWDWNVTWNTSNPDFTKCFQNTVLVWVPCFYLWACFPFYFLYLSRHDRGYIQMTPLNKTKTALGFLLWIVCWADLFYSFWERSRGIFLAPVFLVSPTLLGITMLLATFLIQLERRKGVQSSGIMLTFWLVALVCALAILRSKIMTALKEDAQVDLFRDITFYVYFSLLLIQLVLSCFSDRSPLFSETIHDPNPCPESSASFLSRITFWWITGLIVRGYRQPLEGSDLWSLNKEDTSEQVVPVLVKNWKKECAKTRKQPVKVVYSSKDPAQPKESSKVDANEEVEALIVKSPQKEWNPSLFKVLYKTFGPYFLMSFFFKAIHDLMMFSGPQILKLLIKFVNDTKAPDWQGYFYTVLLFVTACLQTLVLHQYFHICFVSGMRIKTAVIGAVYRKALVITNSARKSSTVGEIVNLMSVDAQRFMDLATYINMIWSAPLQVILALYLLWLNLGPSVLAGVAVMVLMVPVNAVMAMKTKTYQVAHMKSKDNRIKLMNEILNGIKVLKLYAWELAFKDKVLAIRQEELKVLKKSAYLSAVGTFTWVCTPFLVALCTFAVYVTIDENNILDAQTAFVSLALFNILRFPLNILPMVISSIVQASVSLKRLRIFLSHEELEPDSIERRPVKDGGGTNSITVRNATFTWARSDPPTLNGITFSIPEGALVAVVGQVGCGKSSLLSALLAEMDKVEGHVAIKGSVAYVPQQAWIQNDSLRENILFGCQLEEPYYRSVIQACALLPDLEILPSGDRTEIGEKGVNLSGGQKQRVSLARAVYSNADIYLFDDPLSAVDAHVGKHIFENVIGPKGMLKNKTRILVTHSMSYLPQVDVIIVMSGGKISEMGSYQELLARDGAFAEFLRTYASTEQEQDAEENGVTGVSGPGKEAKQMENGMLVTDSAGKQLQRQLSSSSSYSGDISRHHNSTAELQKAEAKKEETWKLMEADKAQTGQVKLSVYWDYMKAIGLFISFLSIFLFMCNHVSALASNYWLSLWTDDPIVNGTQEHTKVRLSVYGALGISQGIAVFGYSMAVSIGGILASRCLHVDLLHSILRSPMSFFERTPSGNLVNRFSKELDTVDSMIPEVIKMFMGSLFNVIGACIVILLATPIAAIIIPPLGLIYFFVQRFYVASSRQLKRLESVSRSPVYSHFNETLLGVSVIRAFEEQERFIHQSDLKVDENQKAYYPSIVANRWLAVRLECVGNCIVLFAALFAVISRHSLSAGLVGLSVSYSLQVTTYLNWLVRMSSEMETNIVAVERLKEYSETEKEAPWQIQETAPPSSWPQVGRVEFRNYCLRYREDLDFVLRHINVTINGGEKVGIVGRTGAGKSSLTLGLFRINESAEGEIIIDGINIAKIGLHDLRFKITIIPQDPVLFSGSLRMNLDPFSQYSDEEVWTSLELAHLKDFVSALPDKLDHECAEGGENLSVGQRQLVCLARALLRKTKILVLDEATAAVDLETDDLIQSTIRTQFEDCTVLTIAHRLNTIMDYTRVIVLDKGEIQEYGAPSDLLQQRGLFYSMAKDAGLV
More on the design: method as in PMID 23470221, PMID 7999426, PMID 11309820, PMID 14973080; key: +: whether they are actively transported or not; −: whether they are actively transported or not.

For `O=C(O)CN(CC(=O)O)Cc1cc2c(cc1O)Oc1cc(O)c(CN(CC(=O)O)CC(=O)O)cc1C21OC(=O)c2ccccc21` [Calcein], at ABCB1, the “actively transported by ABCB1” value is “+”. Further, in the data set on ABCG2, the “actively transported by ABCG2” value was “−”. The “actively transported by ABCC1” value on ABCC1 is given as “+”.

For `CCOc1ccc(-c2nc3ccc(-c4nc5ccc(N6CCN(C)CC6)cc5[nH]4)cc3[nH]2)cc1` [Hoechst 33324], the “actively transported by ABCG2” value in the data set with ABCG2 is listed as “+”. Further, on ABCC1, the “actively transported by ABCC1” value was “−”.

In the case of `C=Cc1c(C)c2cc3nc(c4c5[nH]c(cc6nc(cc1[nH]2)C(C)=C6CC)c(C)c5C(=O)[C@@H]4C(=O)OC)[C@@H](CCC(=O)O)[C@@H]3C` [Pheophorbide A], the “actively transported by ABCG2” value in the data set with ABCG2 was “+”. At ABCC1, the “actively transported by ABCC1” value is “−”.

In the case of `COC(=O)c1ccccc1-c1c2ccc(=N)cc-2oc2cc(N)ccc12` [Rhodamine 123], the “actively transported by ABCB1” value at ABCB1 is “+”. The “actively transported by ABCG2” value with ABCG2 was “−”. Further, the “actively transported by ABCC1” value on ABCC1 is “+”.
